Reference: patent US20240217950A1, “PESTICIDALLY ACTIVE CYCLIC AMINE COMPOUNDS” (SYNGENTA CROP PROTECTION AG, priority 2021, published 2024)

Test system: Tetranychus urticae (Two-Spotted Spider Mite)
Assay: Tetranychus urticae (two-spotted spider mite) feeding/contact activity on bean leaf discs
Format: in vivo
Details: foliar, 192 h, application rate of 200 ppm, sprayed bean leaf discs, mixed population (mobile stages), 8 days after infestation
Procedure: Example B1: Tetranychus urticae (Two-Spotted Spider Mite)
Feeding/contact activity Bean leaf discs on agar in 24-well microtiter plates were sprayed with aqueous test solutions prepared from 10′000 ppm DMSO stock solutions. After drying the leaf discs were infested with a mite population of mixed ages. The samples were assessed for mortality on mixed population (mobile stages) 8 days after infestation.

## COCc1nc(OCc2cc(C(F)(F)F)ccc2F)c(C#N)cc1C(=O)N1CCC(c2noc(C)n2)CC1 [Compound P1.2, 2-[[2-fluoro-5-(trifluoromethyl)phenyl]methoxy]-6-(methoxymethyl)-5-[4-(5-methyl-1,2,4-oxadiazol-3-yl)piperidine-1-carbonyl]pyridine-3-carbonitrile]
  mortality at 200 ppm: ≥ 80%
